Experimental data as given in the NIST ThermoML archive (doi:10.1021/acs.jced.6b00279).
Numbers after ± are expanded uncertainties.

Settings: Crystal; visual observation

CCCC[n+]1ccccc1.[Br-] [1-butylpyridinium bromide]
Normal melting temperature: 105.00 ± 2 °C
